molecular target: T1, hFAAH (Homo sapiens, UniProt O00519); assay: Fluorimetric assay with hFAAH microsomes (enzymatic, fluorescence based); type: biochemical; conditions: compound at 1 uM, AA-AMC substrate
T1 construct: expressed in transfected cells; host or cells: HEK293-TRex (Invitrogen) stably transfected with hFAAH in the pcDNA5-Tet-off vector, or T84 human colon epithelial cells (endogenous hFAAH); used as a microsomal preparation
T1 sequence (O00519 1-579): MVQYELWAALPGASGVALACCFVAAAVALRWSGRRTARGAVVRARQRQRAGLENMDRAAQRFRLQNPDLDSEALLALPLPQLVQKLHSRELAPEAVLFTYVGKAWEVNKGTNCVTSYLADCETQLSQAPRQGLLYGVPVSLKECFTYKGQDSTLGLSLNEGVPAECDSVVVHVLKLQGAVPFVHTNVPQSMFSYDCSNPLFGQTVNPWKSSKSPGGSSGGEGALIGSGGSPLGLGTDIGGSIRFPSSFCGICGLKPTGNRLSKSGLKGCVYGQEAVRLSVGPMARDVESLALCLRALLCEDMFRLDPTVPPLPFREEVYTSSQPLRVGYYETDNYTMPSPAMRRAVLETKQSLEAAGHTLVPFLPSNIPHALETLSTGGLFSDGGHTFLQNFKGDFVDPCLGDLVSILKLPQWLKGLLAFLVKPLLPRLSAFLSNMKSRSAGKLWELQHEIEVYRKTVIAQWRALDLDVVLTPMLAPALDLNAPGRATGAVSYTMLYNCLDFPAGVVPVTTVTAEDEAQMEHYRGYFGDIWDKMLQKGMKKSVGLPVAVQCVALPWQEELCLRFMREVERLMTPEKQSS
Description: Human cell line T84 (human colon epithelial cells), which expresses endogenous hFAAH, or HEK293-TRex cells (Invitrogen) stably transfected with hFAAH in the pcDNA5-Tet-off vector are cultured in medium containing DMEM, 10% FBS penicillin/streptomycin, glutamax, 200 μg/ml hygromycin and 0.5 μg/ml blasticidin. Cell collection is done 24 h after induction with doxycycline by first washing the cells with cold PBS and then incubating them with Versene before centrifugation. Cell pellets are then stored at −80° C. until needed. For homogenization, the cell pellets are thawed on ice […] and resuspended in homogenization buffer (50 mM HEPES (pH 7.4), 1 mM EDTA, 1 μM Pepstatin A, 100 μM Leupeptin, 0.1 mg/mL aprotinin). Cell suspensions are then homogenized on ice using the Polytron 1200 C at setting 6 for three 30-second intervals with 30-second rests. The suspension is centrifuged at 1000 g for 10 minutes at 4° C. and the supernatant is collected and further centrifuged at 24000 rpm for 30 minutes at 4° C. using an ultracentrifuge. Pellets are resuspended by adding in cold microsomal buffer (50 mM HEPES (pH 7.4) and 1 mM EDTA) and sheared through a 23-gauge needle five times, keeping the suspension on ice. Protein concentrations are determined using the BCA assay and aliquoted preparations are stored at −80° C. until needed.
Compound potency against hFAAH is determined using an enzymatic assay with a fluorescence readout. Briefly, experiments were carried out in a 96-well plate format (Corning Costar, # 3370) with a total well volume of 160 μL with components added in the following order: assay buffer (50 mM HEPES (pH 7.4), 1 mM EDTA, 1.4 mg/mL BSA), compound solutions (7 different concentrations per compound in duplicate), microsomal enzyme preparation (10 μg per well) and substrate [AA-AMC (arachadonyl 7-amino 4-methyl coumarin amide), 2 μM]. After a brief shaking, a kinetic read of the plate is obtained using a Tecan Safire II in kinetic mode for 275 cycles with excitation and emission wavelengths of 355 and 460 nm, respectively. Raw data is then processed and analyzed using Assay Explorer and GraphPad Prism.
The following compounds have been or can be prepared according to the methods of the invention. An enzymatic (fluorescence based) assay is performed as described above. In Table 1, activity of each compound is expressed as follows: • ++++ % Inhibition >75% • +++ % Inhibition >50% • ++ % Inhibition >25% • + % Inhibition <25%

inhibition at 1 µM [%] | SMILES
> 50 | Cn1nccc1S(=O)(=O)N1Cc2ncnc(Nc3cnc4ccccc4c3)c2C1 [Compound 60, [6-(2-Methyl-2H-pyrazole-3-sulfonyl)-6,7-dihydro-5H-pyrrolo[3,4-d]pyrimidin-4-yl]-quinolin-3-yl-amine]
< 25 | Cc1nc(CN2Cc3ncnc(Nc4cnc5ccccc5c4)c3C2)cs1 [Compound 25, [6-(2-Methyl-thiazol-4-ylmethyl)-6,7-dihydro-5H-pyrrolo[3,4-d]pyrimidin-4-yl]-quinolin-3-yl-amine]
< 25 | Cc1nc(C)c(CC(=O)N2Cc3ncnc(Nc4cnc5ccccc5c4)c3C2)s1 [Compound 50, 2-(2,4-Dimethyl-thiazol-5-yl)-1-[4-(quinolin-3-ylamino)-5,7-dihydro-pyrrolo[3,4-d]pyrimidin-6-yl]-ethanone]
< 25 | OCCCCN1Cc2ncnc(Nc3cnc4ccccc4c3)c2C1 [Compound 20, 4-[4-(Quinolin-3-ylamino)-5,7-dihydro-pyrrolo[3,4-d]pyrimidin-6-yl]-butan-1-ol]
> 25 | CC(C)C(C)N1Cc2ncnc(Nc3cnc4ccccc4c3)c2C1 (stereo not shown) [Compound 32, [6-(1,2-Dimethyl-propyl)-6,7-dihydro-5H-pyrrolo[3,4-d]pyrimidin-4-yl]-quinolin-3-yl-amine]
> 25 | c1ccc2ncc(Nc3ncnc4c3CN(CC3CCOC3)C4)cc2c1 (stereo not shown) [Compound 13, Quinolin-3-yl-[6-(tetrahydro-furan-3-ylmethyl)-6,7-dihydro-5H-pyrrolo[3,4-d]pyrimidin-4-yl]-amine]
> 50 | Clc1ncc(CN2Cc3ncnc(Nc4cnc5ccccc5c4)c3C2)s1 [Compound 91, [6-(2-Chloro-thiazol-5-ylmethyl)-6,7-dihydro-5H-pyrrolo[3,4-d]pyrimidin-4-yl]-quinolin-3-yl-amine]
> 50 | Cc1nc(C)c(C(=O)N2Cc3ncnc(Nc4cnc5ccccc5c4)c3C2)s1 [Compound 49, (2,4-Dimethyl-thiazol-5-yl)-[4-(quinolin-3-ylamino)-5,7-dihydro-pyrrolo[3,4-d]pyrimidin-6-yl]-methanone]
< 25 | Cc1nc(C)c(NC(=O)N2Cc3ncnc(Nc4cnc5ccccc5c4)c3C2)s1 [Compound 51, 4-(Quinolin-3-ylamino)-5,7-dihydro-pyrrolo[3,4-d]pyrimidine-6-carboxylic acid (2,4-dimethyl-thiazol-5-yl)-amide]
> 75 | CCOc1ccccc1CN1Cc2ncnc(Nc3cnc4ccccc4c3)c2C1 [Compound 100, [6-(2-Ethoxy-benzyl)-6,7-dihydro-5H-pyrrolo[3,4-d]pyrimidin-4-yl]-quinolin-3-yl-amine]
> 25 | c1ccc2ncc(Nc3ncnc4c3CN(Cc3nccs3)C4)cc2c1 [Compound 76, Quinolin-3-yl-(6-thiazol-2-ylmethyl-6,7-dihydro-5H-pyrrolo[3,4-d]pyrimidin-4-yl)-amine]
> 25 | CCCC(C)N1Cc2ncnc(Nc3cnc4ccccc4c3)c2C1 (stereo not shown) [Compound 42, [6-(1-Methyl-butyl)-6,7-dihydro-5H-pyrrolo[3,4-d]pyrimidin-4-yl]-quinolin-3-yl-amine]

More lines, now with the values behind:

SMILES | inhibition at 1 µM [%]
c1ccc2ncc(Nc3ncnc4c3CN(CC3CCCOC3)C4)cc2c1 (stereo not shown) [Compound 16, Quinolin-3-yl-[6-(tetrahydro-pyran-3-ylmethyl)-6,7-dihydro-5H-pyrrolo[3,4-d]pyrimidin-4-yl]-amine] | > 50
O=C(CN1CCCCCC1)N1Cc2ncnc(Nc3cnc4ccccc4c3)c2C1 [Compound 52, 2-Azepan-1-yl-1-[4-(quinolin-3-ylamino)-5,7-dihydro-pyrrolo[3,4-d]pyrimidin-6-yl]-ethanone] | < 25
FC(F)Oc1ccccc1CN1Cc2ncnc(Nc3cnc4ccccc4c3)c2C1 [Compound 105, [6-(2-Difluoromethoxy-benzyl)-6,7-dihydro-5H-pyrrolo[3,4-d]pyrimidin-4-yl]-quinolin-3-yl-amine] | > 75
Cc1csc(CN2Cc3ncnc(Nc4cnc5ccccc5c4)c3C2)n1 [Compound 77, [6-(4-Methyl-thiazol-2-ylmethyl)-6,7-dihydro-5H-pyrrolo[3,4-d]pyrimidin-4-yl]-quinolin-3-yl-amine] | > 50
Cc1ncccc1CN1Cc2ncnc(Nc3cnc4ccccc4c3)c2C1 [Compound 17, [6-(2-Methyl-pyridin-3-ylmethyl)-6,7-dihydro-5H-pyrrolo[3,4-d]pyrimidin-4-yl]-quinolin-3-yl-amine] | > 75
FC(F)(F)Oc1ccccc1CN1Cc2ncnc(Nc3cnc4ccccc4c3)c2C1 [Compound 98, Quinolin-3-yl-[6-(2-trifluoromethoxy-benzyl)-6,7-dihydro-5H-pyrrolo[3,4-d]pyrimidin-4-yl]-amine] | > 75
O=S(=O)(CCc1ccccc1)N1Cc2ncnc(Nc3cnc4ccccc4c3)c2C1 [Compound 82, [6-(2-Phenyl-ethanesulfonyl)-6,7-dihydro-5H-pyrrolo[3,4-d]pyrimidin-4-yl]-quinolin-3-yl-amine] | < 25
COC(=O)c1ccc(S(=O)(=O)N2Cc3ncnc(Nc4cnc5ccccc5c4)c3C2)o1 [Compound 68, 5-[4-(Quinolin-3-ylamino)-5,7-dihydro-pyrrolo[3,4-d]pyrimidine-6-sulfonyl]-furan-2-carboxylic acid methyl ester] | > 75
Fc1cccc(CN2Cc3ncnc(Nc4cnc5ccccc5c4)c3C2)c1F [Compound 107, [6-(2,3-Difluoro-benzyl)-6,7-dihydro-5H-pyrrolo[3,4-d]pyrimidin-4-yl]-quinolin-3-yl-amine] | > 75
CN1CCC(CN2Cc3ncnc(Nc4cnc5ccccc5c4)c3C2)CC1 [Compound 27, [6-(1-Methyl-piperidin-4-ylmethyl)-6,7-dihydro-5H-pyrrolo[3,4-d]pyrimidin-4-yl]-quinolin-3-yl-amine] | < 25
CC(C)Oc1ccccc1CN1Cc2ncnc(Nc3cnc4ccccc4c3)c2C1 [Compound 109, [6-(2-Isopropoxy-benzyl)-6,7-dihydro-5H-pyrrolo[3,4-d]pyrimidin-4-yl]-quinolin-3-yl-amine] | > 50
O=S(=O)(c1ccccc1Cl)N1Cc2ncnc(Nc3cnc4ccccc4c3)c2C1 [Compound 72, [6-(2-Chloro-benzenesulfonyl)-6,7-dihydro-5H-pyrrolo[3,4-d]pyrimidin-4-yl]-quinolin-3-yl-amine] | > 50
CC(C)(C)CCN1Cc2ncnc(Nc3cnc4ccccc4c3)c2C1 [Compound 15, [6-(3,3-Dimethyl-butyl)-6,7-dihydro-5H-pyrrolo[3,4-d]pyrimidin-4-yl]-quinolin-3-yl-amine] | > 25
c1ccc2ncc(Nc3ncnc4c3CN(Cc3ccncc3)C4)cc2c1 [Compound 94, (6-Pyridin-4-ylmethyl-6,7-dihydro-5H-pyrrolo[3,4-d]pyrimidin-4-yl)-quinolin-3-yl-amine] | > 75
CCN1Cc2ncnc(Nc3cnc4ccccc4c3)c2C1 [Compound 3, (6-Ethyl-6,7-dihydro-5H-pyrrolo[3,4-d]pyrimidin-4-yl)-quinolin-3-yl-amine] | < 25
c1cc(CN2Cc3ncnc(Nc4cnc5ccccc5c4)c3C2)c2c(c1)OCO2 [Compound 103, (6-Benzo[1,3]dioxol-4-ylmethyl-6,7-dihydro-5H-pyrrolo[3,4-d]pyrimidin-4-yl)-quinolin-3-yl-amine] | > 75

Reference: patent US20110257208A1, “COMPOUNDS USEFUL AS FAAH MODULATORS AND USES THEREOF” (priority 2008, published 2011)
